In patent US7595300B2, “7-quinolyl ketolide antibacterial agents” (priority 2005, dated 2009):
Values after ≈ are worked out from the molar mass of the structure shown. Where two headings read alike, the source gives them in different places.

Experiments:
[1] = system: Streptococcus pneumoniae ATCC 6303; test: rat lower respiratory tract infection (lung pneumonia) model; assay type: in vivo; conditions: for Log CFU/g (avg, n = 8): rat lungs, 12 hours after the last dose
Method: The in vivo efficacy of compounds (II) and (III) were evaluated in a rat lower respiratory tract infection model. Groups of 8 rats were infected intratracheally with 0.5 mL containing 10^6 CFUs of Streptococcus pneumoniae ATCC 6303 in 5% hog gastric mucin. Compounds dissolved in ethanol were administered by oral gavage daily over 3 days starting 18 hours post-inoculation. Lungs were aseptically removed from survivors 12 hours after the last dose and examined for visible signs of infection, then homogenized in sterile PBS and plated for determination of CFUs by log plating on Columbia agar-nalidixic acid plates.

S. pyogenes = test: MIC, NCCLS broth microdilution, respiratory pathogens; assay type: cell-based; conditions: Streptococcus pyogenes
Method: (§1) Minimum inhibitory concentrations (“MICs”) were determined by the NCCLS broth microdilution procedure for susceptibility testing for bacteria that grow aerobically (National Committee for Clinical Laboratory Standards, 1997. Methods for dilution antimicrobial susceptibility tests for bacteria that grow aerobically, 4th ed. Approved standard. NCCLS Document M7-A4. National Committee for Clinical Laboratory Standards, Villanova, Pa.). Stock solutions were prepared on the day of the test and appropriate aliquots were added to cation adjusted Mueller-Hinton broth (CAMHB, DIFCO) or Haemophilus test media. Two-fold serial dilutions were prepared and added to wells in microtiter plates. Final test concentrations ranged from 8 to 0.004 ug/ml. Broth cultures of bacteria inoculated from growth on overnight plates for all test bacteria except Streptococcus pneumoniae and Haemophilus influenzae were incubated at 35° C. and then adjusted to the Kirby Bauer standard and diluted in CAMHB to achieve a final inoculum concentration of approximately 5×10^5 CFU/ml. Inocula for S. pneumoniae and H. influenzae were prepared by directly suspending colonies from an overnight plate, adjusting the turbidity and diluting as above. S. pneumoniae media was supplemented with 3% lysed horse blood. All plates were incubated in ambient air at 35° C. for 20-24 h for S. pneumoniae and Haemophilus influenzae and 16-20 h for all other bacteria.

Haemophilus influenzae = test: as above; assay type: cell-based; conditions: H. influenzae
Method: as §1

Streptococcus pneumoniae = test: as above; assay type: cell-based; conditions: S. pneumoniae
Method: as §1

M. catarrhalis = test: as above; assay type: cell-based; conditions: Moraxella catarrhalis
Method: as §1

P. acnes = test: MIC, NCCLS Reference Agar Dilution Method for anaerobic bacteria; assay type: cell-based, Propionibacterium acnes
Method: Minimum inhibitory concentrations (“MICs”) were determined by the NCCLS Reference Agar Dilution Method (M11-A5, Vol. 21, No. 2) for anaerobic bacteria. A panel of 84 antibiotic-susceptible and resistant strains of Propionibacteria from distinct geographic locations were selected. Following revival from frozen stocks, each strain was purity plated onto Wilkins Chalgren Agar, pH 7.2 (Oxoid, UK), and the appropriate antibiotic resistance/susceptibility phenotype was confirmed by antibiotic disc testing. Each strain was subjected to an agar dilution MIC assay. […] The inocula for each batch of strains were prepared from 7-day old Wilkins Chalgren Agar plate cultures by resuspension of colonies in Wilkins Chalgren Anaerobe broth, pH 7.2 (Oxoid, UK) to an optical density (OD600) of 0.2±0.02. The inoculum (1.0-2.0 μL) for each strain was applied to a Wilkins Chalgren Agar MIC plate in a grid pattern using a Multipoint Inoculator (Denley, UK). All agar plates were incubated at 37° C. for 3 days under anaerobic conditions in AnaeroPack 7 liter rectangular jars (Mitsubishi Gas Chemical Company, Inc., Japan).

human hepG2 hepatocytes = test: In vitro hepatotoxicity, resazurin and Nile Red staining; assay type: cell-based; conditions: 100 μM
Method: In one experiment, hepatotoxicity was estimated by overnight incubation of compounds at 3, 10, 30, 100, or 300 μM with cultured rat or human hepG2 hepatocytes, followed by staining of the cells with resazurin to measure viability or with Nile Red to measure steatosis. The minimal drug concentration at which changes in dye binding were observed was noted as the minimal effective concentration. The compound of formula (VIII) wherein Z=3-quinolyl affected […] and steatosis in human HepG2 hepatocytes at 30 μM.

[2] = genotype sensitive, read-out: MIC50
[3] = genotype sensitive, read-out: MIC90

## CC1CC(N(C)C)C(O)C(O[C@@H]2[C@@H](C)C(=O)[C@](C)(F)C(=O)O[C@H](CCF)[C@@]3(C)OC(=O)N[C@@H]3[C@@H](C)C(=O)[C@H](C)C[C@@]2(C)OC/C=C/c2ccc3cccnc3c2)O1 (stereo partly drawn) [Compound (III), 6-O-(1-(7-quinolyl)-3-propenyl)-11-amino-11-deoxy-3-(descladinosyl)-3-oxo-2,15-difluoroerythromycin A-11,12-cyclic carbamate]
[1]; 0.5 mg/kg oral gavage daily over 3 days
  Log CFU/g (avg, n = 8): 3.9 Log CFU/g
[1]; 2.5 mg/kg oral gavage daily over 3 days
  Log CFU/g (avg, n = 8): 3.0 Log CFU/g
[1]; rat, 0.5 mg/kg oral gavage daily over 3 days
  % survivors: 100%
[1]; rat, 2.5 mg/kg oral gavage daily over 3 days
  % survivors: 100%
[1]; rat, oral gavage daily over 3 days
  reducing the bacterial load in the rat lungs and increasing survival relative to control animals: efficacious
S. pyogenes; genotype ermB
  MIC50: 0.12 µg/mL (≈ 0.15 µM)
  MIC90: 1 µg/mL (≈ 1.25 µM)
S. pyogenes; genotype mef, read-out: MIC50
  MIC50: 0.12 µg/mL (≈ 0.15 µM)
S. pyogenes; genotype mef, read-out: MIC90
  MIC90: 0.12 µg/mL (≈ 0.15 µM)
S. pyogenes; [2]
  MIC50: 0.06 µg/mL (≈ 0.0748 µM)
S. pyogenes; [3]
  MIC90: 0.06 µg/mL (≈ 0.0748 µM)
Haemophilus influenzae; resistant
  MIC50: > 8 µg/mL
  MIC90: > 8 µg/mL
Haemophilus influenzae; sensitive
  MIC50: 2 µg/mL (≈ 2.49 µM)
  MIC90: 4 µg/mL (≈ 4.99 µM)
Streptococcus pneumoniae; 20 h, genotype ermB + mef
  MIC50: 0.5 µg/mL
Streptococcus pneumoniae; genotype ermB
  MIC50: 0.12 µg/mL (≈ 0.15 µM)
  MIC90: 0.12 µg/mL (≈ 0.15 µM)
Streptococcus pneumoniae; genotype ermB + mef
  MIC90: 1 µg/mL
Streptococcus pneumoniae; genotype mef, read-out: MIC50
  MIC50: 0.25 µg/mL (≈ 0.312 µM)
Streptococcus pneumoniae; genotype mef, read-out: MIC90
  MIC90: 0.25 µg/mL (≈ 0.312 µM)
Streptococcus pneumoniae; [2]
  MIC50: 0.03 µg/mL (≈ 0.0374 µM)
Streptococcus pneumoniae; [3]
  MIC90: 0.03 µg/mL (≈ 0.0374 µM)
M. catarrhalis
  MIC50: 0.12 µg/mL (≈ 0.15 µM)
  MIC90: 0.12 µg/mL (≈ 0.15 µM)
P. acnes; marker RNA 1058, phenotype TetR
  MIC range: 0.06 to 1 µg/mL
P. acnes; marker RNA 1058/2058, phenotype TetR, EryR
  MIC range: 1 to 2 µg/mL
P. acnes; marker RNA 1058/2059, phenotype TetR, EryR
  MIC range: 0.5 µg/mL (≈ 0.623 µM)
P. acnes; marker RNA 2057, phenotype EryR
  MIC range: 0.06 µg/mL (≈ 0.0748 µM)
P. acnes; marker RNA 2058, phenotype EryR
  MIC range: 0.125 to 2 µg/mL
P. acnes; marker RNA 2058, phenotype EryR, TetR
  MIC range: 0.06 to 1 µg/mL
P. acnes; marker RNA 2059, phenotype EryR
  MIC range: 0.125 to 2 µg/mL
P. acnes; marker ermX, phenotype EryR
  MIC range: 32 to 128 µg/mL
P. acnes; marker none, phenotype none
  MIC range: 0.06 µg/mL (≈ 0.0748 µM)
P. acnes; marker unknown, phenotype ClindR
  MIC range: 0.06 µg/mL (≈ 0.0748 µM)
Human hepG2 hepatocytes
  effects on metabolic stability and steatosis: No effects
